The test system of one assay is mature adult rat. As to the kind of experiment: Social Recognition Test (SRT), in vivo. The note with it: 3 mg/kg, same administration regime. The procedure: The method, which detects memory enhancing activity, follows that described by Lemaire et al. (Psychopharmacology, 115, 435-440, 1994). An unfamiliar juvenile rat was introduced into the individual home cage of a mature adult rat for 5 minutes. Following this first contact (C1), the juvenile was returned to its isolation cage, until a second contact of 5 minutes with the same mature adult rat (C2), 120 minutes later was allowed.
The time the adult rat spended investigating (sniffing, grooming, licking, closely following) the juvenile at each contact was recorded. A recognition index (=C2/C1) was calculated. Under such conditions, a mature adult rat fails to recognize the juvenile as familiar, as indicated by an absence of reduction in the duration of social investigatory behaviour at C2.
12 rats were studied per group (in total 3 groups, vehicle, test compound, positive control). The test was performed blind. The test compound (e.g. the extract according example 3) was evaluated at a dose of 1 g/kg administered p.o. immediately after Cl (i.e. 120 minutes before C2), and compared with a vehicle control group. The test substance was dispersed in 4% Cremophor El, (polyoxyethylated castor oil, BASF, Ludwigshafen, Germany) in physiological saline which served as the vehicle. […] Data were analyzed by comparing treated groups with appropriate control using unpaired Student's t tests. […]

Another assay has as its target T1, ADORA2A (Homo sapiens, UniProt P29274).
T1 construct: host or cells: HEK-293
As to the kind of experiment: ADORA2A in vitro receptor assay, [3H]CGS-21680 radioligand binding. The note with it: human recombinant HEK-293 cells, 0.05 μM [3H] CGS-21680. The procedure: The methods employed in this study have been adapted from the scientific literature (Varani K, Gessi S, Dalpiaz A, Borea P A (1996) Br. J. Pharmacol. 117, 1693 Pharmacological and biochemical characterization of purified A2A adenosine receptors in human platelet membranes by [3H]CGS-21680 binding) to maximize reliability and reproducibility. Reference standards are run as an integral part of each assay to ensure the validity of the results obtained. Assays are performed under conditions described below. (assay number 200610, Ricerca Biosciences, LLC, Taipei, Taiwan). • Source: Human recombinant HEK-293 cells • Ligand: 0.05 μM [3H]

T1 sequence (P29274 whole entry): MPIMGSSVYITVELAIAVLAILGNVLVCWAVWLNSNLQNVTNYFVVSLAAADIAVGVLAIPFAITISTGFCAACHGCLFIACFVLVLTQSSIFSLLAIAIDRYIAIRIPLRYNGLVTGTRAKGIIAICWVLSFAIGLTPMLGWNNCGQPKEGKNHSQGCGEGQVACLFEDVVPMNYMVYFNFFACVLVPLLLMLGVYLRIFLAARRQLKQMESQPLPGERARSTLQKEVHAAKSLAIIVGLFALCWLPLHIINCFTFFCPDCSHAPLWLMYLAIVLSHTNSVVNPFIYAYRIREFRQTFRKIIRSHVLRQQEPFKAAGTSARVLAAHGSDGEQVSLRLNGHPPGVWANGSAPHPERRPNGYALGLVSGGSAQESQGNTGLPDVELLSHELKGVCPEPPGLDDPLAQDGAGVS

Regarding `COc1cc2c(cc1OC)C(=O)C(CC1CCN(Cc3ccccc3)CC1)C2` (stereo not drawn) [Donepezil], the “effect of the positive control (presumably on the Recognition Index)” value with mature adult rat is reported as −28%. For the compound `C=C[C@@]1(C)C[C@@H](OC(=O)c2ccccc2)[C@H]2[C@](O)(C1=O)[C@H](OC(C)=O)C[C@H]1C(C)(C)[C@H](O)[C@H](OC(C)=O)[C@H](OC(=O)c3ccccc3)[C@@]12C` [[4], Orthosiphol A], the inhibition at 10 µM at ADORA2A turned out to be 42%.

In the case of `C=C[C@@]1(C)C[C@@H](OC(=O)c2ccccc2)[C@@H]2[C@@]3(C)C=C(OC(C)=O)C(=O)C(C)(C)[C@@H]3C[C@@H](OC(C)=O)[C@@]2(O)C1=O` [[5], Orthosiphol D], at ADORA2A, the inhibition at 10 µM is 52%. For `C=C[C@@]1(C)CC(=O)[C@H]2[C@](O)(C1=O)[C@H](OC(C)=O)C[C@H]1C(C)(C)[C@H](OC(=O)c3ccccc3)[C@H](OC(C)=O)[C@H](OC(=O)c3ccccc3)[C@@]12C` [[6], Orthosiphonone A], at ADORA2A, the inhibition at 10 µM was 42%.

As to `C=CC1C(OC(=O)c2ccccc2)C2C(O)(C(=O)C1(C)O)C(OC(C)=O)CC1C(C)(C)C(O)C(OC(C)=O)C(OC(=O)c3ccccc3)C12C` (stereo not drawn) [[7], Neoorthosiphol A], the inhibition at 10 µM at ADORA2A is 64%. The same measure, in the same setting: next, `C=CC1C(OC(=O)c2ccccc2)C2C(O)(C(=O)C1(C)O)C(OC(C)=O)CC1C(C)(C)C(OC(C)=O)C(OC(C)=O)C(OC(=O)c3ccccc3)C12C` (stereo not drawn) [[8], Staminol A]: 42%.

(Values after US20110151033A1, “ORTHOSIPHON STAMINEUS EXTRACTS FOR USE AS A COGNITION ENHANCER” (BIOTROPICS MALAYSIA BHD, priority 2009, published 2011).)
